{"source": "patent US20070172815A1", "about": "(priority 2000, published 2007)", "key": {"[1]": {"system": "native, untransfected HEK cells", "experiment": "Control: BTC fluorescence in native, untransfected HEK cells under identical conditions", "type": "cell-based, human", "source_text": "A person of ordinary skill in the art will understand that control experiments can be performed to facilitate analysis of the effects of the candidate modulator. Control experiments can be performed using: (1) native, untransfected cells under identical conditions of the methods of the invention; (2) the addition of thallium ions to the test mixture in the absence of stimulus solution; (3) cells under identical conditions of the methods of the invention, but without the candidate modulator of the ion channels, channel-linked receptors or ion transporters added to the test mixture; and/or (4) cells under identical conditions to the methods of the invention, but using known modulators of the ion channels, channel-linked receptors or ion transporters.\n(§1) Once loaded, apamin (5 μl/well of 500 nM stock dissolved in Cl^−-free assay buffer (Table II) or an equivalent volume of Cl^−-free assay buffer) was added. The microtiter plates were then transferred to the plate reader, FLIPR. After, or coincident with exposure to apamin or Cl^−-free assay buffer alone, the cells were exposed to 5 μl/well of a stimulus buffer containing 5 μM ionomycin (Calbiochem) and 7.5 mM Tl2SO4 dissolved in Cl^−-free assay buffer containing 2 mM amaranth and 1 mM tartrazine."}, "[2]": {"molecular_target": "T1, large conductance calcium-activated K+ channel, Maxi-K (a.k.a. BK, slo) (Homo sapiens, UniProt Q12791)", "T1 construct": "expressed in transfected cells", "T1 sequence (Q12791 whole entry)": "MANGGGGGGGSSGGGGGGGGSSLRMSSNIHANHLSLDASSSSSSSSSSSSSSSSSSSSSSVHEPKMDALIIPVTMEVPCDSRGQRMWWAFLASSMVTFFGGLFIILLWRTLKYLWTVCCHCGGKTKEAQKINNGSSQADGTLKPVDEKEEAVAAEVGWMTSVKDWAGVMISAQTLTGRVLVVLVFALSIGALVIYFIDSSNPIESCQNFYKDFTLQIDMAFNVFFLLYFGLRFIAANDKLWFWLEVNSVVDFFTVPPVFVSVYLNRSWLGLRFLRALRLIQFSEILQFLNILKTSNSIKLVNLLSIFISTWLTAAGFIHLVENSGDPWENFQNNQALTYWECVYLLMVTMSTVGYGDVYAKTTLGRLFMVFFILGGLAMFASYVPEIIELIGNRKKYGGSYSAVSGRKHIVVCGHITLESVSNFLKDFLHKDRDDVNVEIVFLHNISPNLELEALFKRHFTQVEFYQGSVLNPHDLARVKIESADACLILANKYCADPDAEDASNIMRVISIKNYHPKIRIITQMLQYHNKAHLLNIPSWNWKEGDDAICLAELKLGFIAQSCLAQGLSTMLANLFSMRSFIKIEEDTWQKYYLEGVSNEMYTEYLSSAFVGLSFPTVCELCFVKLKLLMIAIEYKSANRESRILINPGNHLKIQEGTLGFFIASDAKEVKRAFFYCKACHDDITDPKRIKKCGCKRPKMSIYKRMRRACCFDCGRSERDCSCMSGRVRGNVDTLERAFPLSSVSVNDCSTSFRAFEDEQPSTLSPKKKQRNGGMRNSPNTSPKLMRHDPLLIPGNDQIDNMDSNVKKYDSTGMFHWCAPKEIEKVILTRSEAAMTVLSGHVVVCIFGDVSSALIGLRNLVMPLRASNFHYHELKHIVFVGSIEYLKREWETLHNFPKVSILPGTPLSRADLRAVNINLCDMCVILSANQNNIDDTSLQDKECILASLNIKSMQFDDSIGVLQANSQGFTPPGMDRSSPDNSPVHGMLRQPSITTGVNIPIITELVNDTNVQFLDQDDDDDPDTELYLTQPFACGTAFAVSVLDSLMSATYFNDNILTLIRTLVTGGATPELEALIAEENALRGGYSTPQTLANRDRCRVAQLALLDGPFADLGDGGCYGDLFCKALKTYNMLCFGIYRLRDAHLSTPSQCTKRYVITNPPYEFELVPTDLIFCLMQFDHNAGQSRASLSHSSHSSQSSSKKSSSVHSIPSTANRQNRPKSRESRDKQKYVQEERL", "experiment": "Thallium influx assay (BTC fluorescence) in HEK-293 cells stably transfected with Maxi-K", "type": "cell-based", "quoted_text": "HEK-293 cells were stably transfected with Maxi-K channels. […] The channel opener used was NS-1619 (Sigma-Aldrich, St Louis, Mo.) at a final concentration of 15 μM. The channel blocker used was Iberiotoxin (Sigma-Aldrich, St. Louis, Mo.) at a final concentration of 100 nM.\nTo detect channel blockers, the assay was started by adding 11 μl of stimulus buffer containing: 15 μM ionomycin, 12.5 Tl2SO4 and 50 mM K2SO4 dissolved in the Cl^−-free assay buffer (Table II) containing 2 mM amaranth and 1 mM tartrazine.\nTo detect channel openers, the stimulus buffer was identical to the assay conditions of the channel blockers with the exception that 5 μM ionomcyin was used in place of 15 μM ionomycin. Under these conditions the channels were submaximally opened, allowing observation of openers of the channels."}, "[3]": {"molecular_target": "Muscarinic acetylcholine receptor (Homo sapiens, UniProt P20309)", "sequence (P20309 whole entry)": "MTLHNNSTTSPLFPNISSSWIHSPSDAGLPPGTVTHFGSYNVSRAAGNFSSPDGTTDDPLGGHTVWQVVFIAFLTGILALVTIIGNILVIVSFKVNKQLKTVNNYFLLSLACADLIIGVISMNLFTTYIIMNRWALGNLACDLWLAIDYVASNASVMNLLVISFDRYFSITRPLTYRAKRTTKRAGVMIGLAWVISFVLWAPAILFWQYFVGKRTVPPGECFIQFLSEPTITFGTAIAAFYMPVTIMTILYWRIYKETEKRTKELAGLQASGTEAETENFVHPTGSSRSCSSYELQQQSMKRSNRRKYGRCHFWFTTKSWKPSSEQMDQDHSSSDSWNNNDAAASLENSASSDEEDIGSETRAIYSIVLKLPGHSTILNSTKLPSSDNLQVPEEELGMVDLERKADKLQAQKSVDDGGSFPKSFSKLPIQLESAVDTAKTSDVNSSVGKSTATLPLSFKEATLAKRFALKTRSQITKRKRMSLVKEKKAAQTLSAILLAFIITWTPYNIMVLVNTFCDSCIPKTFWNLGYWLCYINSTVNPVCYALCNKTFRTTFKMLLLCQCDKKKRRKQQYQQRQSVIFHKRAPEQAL", "experimental": "(§2) A HEK-293 cell line (obtained from ATCC, Manassas, Va.) stably expressing the small conductance calcium-activated K^+ channel (SK2) was seeded at ~80% confluence in a 384 well microtiter plate, coated with poly-D-lysine plates, containing 20 μl/well low Cl^− cell growth medium. The cells were allowed to incubate overnight at 37 C in a 5% CO2 incubator.\n(§3) The cell-containing plates were removed from the incubator and loaded for approximately 15 min with 2 μM BTC-AM (Molecular Probes, Eugene, Oreg.) dissolved in 20 μL/well Cl^−-free assay buffer containing amaranth and tartrazine (the final concentration in the assay is 2 mM amaranth and 1 mM tartrazine). The AM ester of BTC (BTC-AM) is membrane permeant. As it diffuses across the membrane, it is cleaved by cellular esterases, producing a charged, membrane impermeant dye, BTC. These types of dyes and loading mechanisms are well known to those familiar with the art.\n(§4) All data shown were collected using the FLIPR (Molecular Devices, Sunnyvale, Calif). […] 10 seconds of baseline prior to addition of the stimulus buffer."}, "[4]": {"molecular_target": "T2, small conductance calcium-activated K+ channel (SK2) (Homo sapiens, UniProt Q9H2S1)", "T2 construct": "expressed in transfected cells", "T2 sequence (Q9H2S1 whole entry)": "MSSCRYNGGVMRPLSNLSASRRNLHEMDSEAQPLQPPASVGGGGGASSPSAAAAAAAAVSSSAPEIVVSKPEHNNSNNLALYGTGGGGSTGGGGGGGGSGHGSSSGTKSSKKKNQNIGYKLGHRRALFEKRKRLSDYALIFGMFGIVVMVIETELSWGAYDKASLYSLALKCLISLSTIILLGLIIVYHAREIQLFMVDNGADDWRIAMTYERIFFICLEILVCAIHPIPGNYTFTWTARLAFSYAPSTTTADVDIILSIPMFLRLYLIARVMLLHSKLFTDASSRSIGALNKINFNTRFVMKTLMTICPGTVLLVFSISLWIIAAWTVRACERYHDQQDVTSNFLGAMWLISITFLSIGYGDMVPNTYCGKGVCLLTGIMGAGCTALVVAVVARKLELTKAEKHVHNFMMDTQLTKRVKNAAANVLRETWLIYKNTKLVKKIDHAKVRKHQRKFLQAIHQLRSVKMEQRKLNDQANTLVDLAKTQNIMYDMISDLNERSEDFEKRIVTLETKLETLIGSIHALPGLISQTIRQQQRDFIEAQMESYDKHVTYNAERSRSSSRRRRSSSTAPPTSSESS", "experiment": "Thallium influx assay (BTC fluorescence, FLIPR) in HEK-293 cells stably expressing SK2", "type": "cell-based", "conditions": "stimulus buffer with 5 μM ionomycin and 7.5 mM Tl2SO4; FIG. 1", "experimental": "as §1"}, "[5]": {"molecular_target": "T2, small conductance calcium-activated K+ channel (SK2)", "experiment": "Thallium efflux assay (FluoZin-1 fluorescence) in SK2 expressing HEK-293 cells", "type": "cell-based", "conditions": "stimulus buffer with 5 μM ionomycin; cells preloaded with thallium; FIG. 5", "quoted_text": "Instead of loading the cells with 2 μM BTC-AM, the cells were loaded with 2 μM FluoZin-1 (Molecular Probes, Eugene, Oreg.)\nAfter loading the cells with FluoZin-1, the cells were exposed to 10 μl/well of Cl^−-free assay buffer containing 7.5 mM Tl2SO4 for 10 minutes at room temperature. This step loads the cells with thallium which interacts with the thallium ion sensitive fluorescent dye FluoZin-1 and increases its fluorescence.\nFollowing loading the cells with thallium ions, the solution bathing the cells was aspirated off, and replaced with 80 μl/well of Cl^−-free assay buffer."}, "[6]": {"molecular_target": "T3, non-selective cation channel vanilloid receptor (VR1) (Homo sapiens, UniProt Q8NER1)", "T3 construct": "expressed in transfected cells", "T3 sequence (Q8NER1 whole entry)": "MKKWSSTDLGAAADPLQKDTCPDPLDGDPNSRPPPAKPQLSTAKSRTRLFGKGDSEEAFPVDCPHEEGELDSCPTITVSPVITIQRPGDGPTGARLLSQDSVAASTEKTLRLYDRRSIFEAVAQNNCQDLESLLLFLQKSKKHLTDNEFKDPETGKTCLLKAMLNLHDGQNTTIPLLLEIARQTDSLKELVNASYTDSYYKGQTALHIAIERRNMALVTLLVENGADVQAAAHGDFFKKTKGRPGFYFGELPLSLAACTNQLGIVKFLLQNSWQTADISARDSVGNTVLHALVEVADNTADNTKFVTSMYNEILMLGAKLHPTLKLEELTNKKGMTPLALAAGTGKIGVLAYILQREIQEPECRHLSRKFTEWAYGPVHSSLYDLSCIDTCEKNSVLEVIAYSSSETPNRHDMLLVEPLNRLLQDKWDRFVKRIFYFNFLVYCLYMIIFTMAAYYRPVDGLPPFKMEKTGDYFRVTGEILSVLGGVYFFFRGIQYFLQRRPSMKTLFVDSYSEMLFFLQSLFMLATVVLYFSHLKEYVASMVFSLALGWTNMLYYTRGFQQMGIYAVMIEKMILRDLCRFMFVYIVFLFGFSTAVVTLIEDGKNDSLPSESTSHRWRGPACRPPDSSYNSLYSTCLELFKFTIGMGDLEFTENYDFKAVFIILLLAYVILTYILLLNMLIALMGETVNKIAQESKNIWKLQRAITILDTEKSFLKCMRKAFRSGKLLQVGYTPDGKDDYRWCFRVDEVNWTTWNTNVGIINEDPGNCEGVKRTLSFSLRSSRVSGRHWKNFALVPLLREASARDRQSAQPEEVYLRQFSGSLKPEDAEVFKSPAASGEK", "experiment": "Thallium influx assay (BTC fluorescence) in CHO cells stably expressing VR1", "type": "cell-based", "experimental": "as §2, §3\nThe microtiter plates were then transferred to the plate reader, FLIPR.\nas §4\nAll experimental conditions for this example were the same as Example II with the following exceptions: • 1. The cell line CHO stably expressing the non-selective cation channel vanilloid receptor (VR1) was used. • 2. The channel antagonist, capsazepine (Sigma-Aldrich, RBI St Louis, Mo.) was applied at a final concentration of 10 μM; and • 3. The assay was started by adding 5 μl of stimulus buffer containing: 1 μM capsaicin and 7.5 mM Tl2SO4 dissolved in a Cl^−-free assay buffer containing 2 mM amaranth and 1 mM tartrazine."}, "[7]": {"molecular_target": "T4, voltage-gated K+ channel KCNQ2 (Mus musculus, UniProt Q9Z351)", "T4 construct": "expressed in transfected cells", "T4 sequence (Q9Z351 whole entry)": "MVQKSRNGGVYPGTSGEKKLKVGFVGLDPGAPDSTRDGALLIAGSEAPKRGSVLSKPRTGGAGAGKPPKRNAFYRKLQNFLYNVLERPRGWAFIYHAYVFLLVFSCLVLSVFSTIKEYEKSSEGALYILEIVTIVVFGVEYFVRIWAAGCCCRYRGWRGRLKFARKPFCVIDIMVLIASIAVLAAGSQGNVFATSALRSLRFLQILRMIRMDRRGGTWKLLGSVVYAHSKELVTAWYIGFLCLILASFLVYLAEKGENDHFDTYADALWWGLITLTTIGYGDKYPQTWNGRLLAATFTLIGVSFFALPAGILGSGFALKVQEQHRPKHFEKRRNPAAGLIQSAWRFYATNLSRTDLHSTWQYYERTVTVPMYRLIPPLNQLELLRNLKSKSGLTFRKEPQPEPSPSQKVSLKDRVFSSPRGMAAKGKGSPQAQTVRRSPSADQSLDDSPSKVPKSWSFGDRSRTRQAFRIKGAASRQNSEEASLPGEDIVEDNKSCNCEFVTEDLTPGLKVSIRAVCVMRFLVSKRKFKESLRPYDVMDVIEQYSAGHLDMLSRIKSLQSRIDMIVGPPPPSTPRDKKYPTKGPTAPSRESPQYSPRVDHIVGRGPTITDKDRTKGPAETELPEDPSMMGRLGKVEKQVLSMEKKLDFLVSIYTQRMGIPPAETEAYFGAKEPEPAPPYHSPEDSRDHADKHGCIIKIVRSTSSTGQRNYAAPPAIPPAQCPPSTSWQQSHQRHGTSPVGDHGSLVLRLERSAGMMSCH", "experiment": "Thallium influx assay (BTC fluorescence) in HEK-293 cells stably transfected with KCNQ2", "type": "cell-based", "conditions": "15 μM final; thallium ions (5 mM) and K+ (20 mM); FIG. 3A", "experimental": "as §1\nHEK-293 cell line stably transfected with the voltage-gated K^+ channel KCNQ2 was used; • 2. The channel opener used was retigabine (Main, M. J., et al., Mol. Pharmacol., 2000, 58, 253-62) at a final concentration of 15 μM; and • 3. The channel blocker DMP-543 (Zaczek, R., et al., J. Pharmacol. Exp. Ther. 1998, 285, 724-30) used was at a final concentration of 15 μM.\nTo detect channel blockers the KCNQ2 channels were opened with a combination of thallium ions (5 mM) and K^+ (20 mM). To detect openers the assay was initiated with thallium ions (3 mM).\nTo detect channel blockers the assay was started by adding 11 μl of stimulus buffer containing: 12.5 mM Tl2SO4 and 50 mM K2SO4 dissolved in the Cl^−-free assay buffer (Table II) containing 2 mM amaranth and 1 mM tartrazine. […]"}, "[8]": {"conditions": "Example III (Maxi-K) conditions"}}, "data": [{"compound": "O=c1[nH]c2cc(C(F)(F)F)ccc2n1-c1cc(C(F)(F)F)ccc1O", "note": "[NS-1619]", "values": [{"measurement": "Effect on the fluorescence of BTC loaded into native, untransfected HEK cells", "setting": "[1]; [8]", "value": "Neither iberiotoxin nor NS-1619 had any effects"}, {"measurement": "Effect of opener on the thallium-induced increase in BTC fluorescence compared to absence of opener", "setting": "[2]", "value": "marked increase"}]}, {"compound": "C[N+](C)(C)CC#CCN1CCCC1=O", "note": "[oxo-M, oxotremorine-M]", "values": [{"measurement": "Change in BTC fluorescence upon addition of muscarinic receptor agonist", "setting": "[3]", "value": "increase in BTC fluorescence"}]}, {"compound": "C[C@H](CCC(=O)O)C[C@H](C)C[C@H](C)C(=O)/C=C(\\O)[C@H](C)C[C@H](C)C/C=C/[C@@H](C)[C@@H](O)[C@@H](C)[C@@H](O)C[C@@H]1CC[C@@](C)([C@H]2CC[C@@](C)([C@@H](C)O)O2)O1", "note": "[ionomycin]", "values": [{"measurement": "Change in BTC fluorescence upon addition of thallium ions plus ionomycin (activation of SK2)", "setting": "[4]", "value": "substantial increase"}, {"measurement": "Change in FluoZin-1 fluorescence upon addition of ionomycin (thallium efflux via activated SK channel)", "setting": "[5]", "value": "decrease in fluorescence"}]}, {"compound": "COc1cc(CNC(=O)CCCC/C=C/C(C)C)ccc1O", "note": "[capsaicin]", "values": [{"measurement": "Effect of compound alone on BTC fluorescence in VR1 expressing CHO cells", "setting": "[6]", "value": "small decrease, but no increase"}, {"measurement": "Change in BTC fluorescence upon addition of thallium and agonist", "setting": "[6]; stimulus buffer with 1 μM capsaicin and 7.5 mM Tl2SO4, FIG. 4", "value": "substantial increase"}]}, {"compound": "Oc1cc2c(cc1O)CN(C(=S)NCCc1ccc(Cl)cc1)CCC2", "note": "[capsazepine]", "values": [{"measurement": "Effect of antagonist on the thallium/capsaicin-induced increase in BTC fluorescence", "setting": "[6]; 10 μM final, FIG. 4", "value": "completely abolished"}, {"measurement": "Effect of compound alone on BTC fluorescence in VR1 expressing CHO cells", "setting": "[6]", "value": "no effect"}]}, {"compound": "O=C1c2ccccc2C(Cc2ccnc(F)c2)(Cc2ccnc(F)c2)c2ccccc21", "note": "[DMP-543]", "values": [{"measurement": "Effect on the fluorescence of BTC loaded into native, untransfected HEK cells", "setting": "[1]; Example IV (KCNQ2) conditions", "value": "Neither DMP-543 nor retigabine had any effects"}, {"measurement": "Effect of blocker on the thallium/potassium-induced increase in BTC fluorescence", "setting": "[7]", "value": "completely abolished"}]}, {"compound": "Iberiotoxin (QFTDVDCSVSKECWSVCKDLFGVDRGKCMGKKCRCYQ; UniProt P24663 1-37, looked up)", "values": [{"measurement": "Effect on the fluorescence of BTC loaded into native, untransfected HEK cells", "setting": "[1]; [8]", "value": "Neither iberiotoxin nor NS-1619 had any effects"}, {"measurement": "Effect of blocker on the thallium/ionomycin/potassium-induced increase in BTC fluorescence", "setting": "[2]; 100 nM final, stimulus buffer with 15 μM ionomycin, FIG. 2A", "value": "completely abolished"}]}]}
